Measured values published in patent publication US7687484B2, “Transporter enhanced corticosteroid activity” (priority 2006, dated 2010).
Where two headings read alike, the source gives them in different places.

Legend:
[1] = logP reported in literature; cited from earlier work
[2] = biological target: T1, glucocorticoid receptor (Homo sapiens, UniProt P04150); test: Relative binding affinity for the glucocorticoid receptor (GCR/GR); details: GRs were calculated from RBAs; read-out: GR Est. IC50
T1 sequence (P04150 1-777): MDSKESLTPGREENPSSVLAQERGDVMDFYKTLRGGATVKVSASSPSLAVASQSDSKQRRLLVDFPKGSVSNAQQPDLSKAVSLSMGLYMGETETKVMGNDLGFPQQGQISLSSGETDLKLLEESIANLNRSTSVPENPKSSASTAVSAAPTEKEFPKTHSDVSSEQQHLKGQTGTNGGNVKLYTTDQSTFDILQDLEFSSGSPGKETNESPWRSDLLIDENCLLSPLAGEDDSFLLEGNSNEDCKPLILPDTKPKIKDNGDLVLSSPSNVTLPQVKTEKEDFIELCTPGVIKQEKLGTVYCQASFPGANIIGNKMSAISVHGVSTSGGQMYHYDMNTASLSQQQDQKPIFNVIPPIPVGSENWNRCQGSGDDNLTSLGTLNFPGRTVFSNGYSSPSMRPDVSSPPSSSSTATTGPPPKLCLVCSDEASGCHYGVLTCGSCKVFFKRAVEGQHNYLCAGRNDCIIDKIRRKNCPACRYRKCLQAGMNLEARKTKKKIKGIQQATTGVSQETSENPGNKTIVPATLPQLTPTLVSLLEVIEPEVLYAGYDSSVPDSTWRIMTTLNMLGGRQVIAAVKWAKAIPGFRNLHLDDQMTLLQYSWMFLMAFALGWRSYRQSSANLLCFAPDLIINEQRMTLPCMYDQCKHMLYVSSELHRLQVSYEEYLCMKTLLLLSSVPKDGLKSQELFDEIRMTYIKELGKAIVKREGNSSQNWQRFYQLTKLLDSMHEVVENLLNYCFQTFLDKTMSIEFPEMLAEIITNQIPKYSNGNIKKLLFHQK

[3] = biological target: T1, glucocorticoid receptor; details: cited from earlier work
[4] = biological target: T2, transcortin (CBG) (Homo sapiens, UniProt P08185); test: Binding of corticosteroids to transcortin: 3H-cortisol competition in charcoal-treated diluted plasma
T2 construct: from tissue; host or cells: plasma from venous blood of healthy volunteers, charcoal-treated, diluted 100-fold
T2 sequence (P08185 23-405): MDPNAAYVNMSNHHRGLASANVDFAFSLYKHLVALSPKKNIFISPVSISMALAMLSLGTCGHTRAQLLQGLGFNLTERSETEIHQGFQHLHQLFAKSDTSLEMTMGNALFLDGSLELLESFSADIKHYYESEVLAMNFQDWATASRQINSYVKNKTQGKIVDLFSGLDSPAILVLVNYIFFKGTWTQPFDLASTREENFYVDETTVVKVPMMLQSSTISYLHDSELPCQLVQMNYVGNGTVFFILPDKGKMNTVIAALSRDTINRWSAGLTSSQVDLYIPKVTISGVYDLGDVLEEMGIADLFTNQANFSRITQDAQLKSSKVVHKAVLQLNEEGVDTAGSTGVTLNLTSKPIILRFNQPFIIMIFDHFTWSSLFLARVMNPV
Method: Experimental procedure: Venous blood was collected from healthy volunteers into heparin-containing tubes (5 Us/100 ml serum) and cells were separated from plasma by centrifugation (1500 g for 15 min). […] Charcoal-treated plasma was diluted 100-fold with binding buffer (10 mM Tris-HCl; 2 mM DTT (dithiotreitol); 1.5 mM EDTA; 0.02 M Na2MoO4; 10% Glycerol; pH 7.4) and was stored aliquoted at −80° C. […] The assay ingredients were mixed and the tubes were incubated for 1 hour on ice. At the end of the incubation, 0.2 ml of charcoal suspension (0.5% Norit A and 0.05% BSA) was added to each tube. The tubes were briefly agitated and incubated for an additional 10 min at 0° C. They were then centrifuged for 10 min at 15 000 g, and the same aliquots from the clear supernatants were quantitatively decanted into counting vials and combined with 3 ml of toluene-based scintillation fluid. […] Specific binding and IC50-values were calculated.

[5] = system: forearms of human volunteers; test: Human vasoconstriction (blanching) testing; format: in vivo; design: key to Vasoconstriction activity (total score of 4 tests): sum of 4 tests, each 0 = normal skin to 4 = very intense pallor
Method: Solutions of LE, HC and PRN (0.1 or 1 mM) alone, or mixtures of LE and HC (0.1+0.1 mM, or 1+1 mM), or LE and PRN (0.1+0.1 mM, or 1+1 mM) were prepared with a vehicle containing absolute ethanol and propylene glycol (9:1). […] After evaporation of ethanol (20 min), the films were applied to the forearms of human volunteers for 4 hours. Subsequently, the vasoconstriction reaction was read and judged by the appearance of pallor at various time intervals after the removal of the discs and films. The grading scale was as follows: 0, normal skin; 1, slight pallor; 2, pallor with at least two corners outlined; 3, even pallor with a clear outlined of the application sites; 4, very intense pallor. Due to the relatively high variations in response between the volunteers, a total score of 4 tests at each time point was taken for the activity evaluation.

[6] = anti-inflammatory activity, LE vs hydrocortisone; cited from earlier work

IC50 [2]: 4 nM
IC50 ([4]; 3 nM 3H-cortisol, 1 hour on ice, plasma diluted 100-fold, read-out: IC50-values (nM) average ± SEM (n)): 272 ± 27 nM
IC50 ([4]; estimated, unpublished results Bodor, Kurucz 2006, read-out: CBG Est. IC50): 270 nM
Compound: CCOC(=O)O[C@]1(C(=O)OCCl)CC[C@H]2[C@@H]3CCC4=CC(=O)C=C[C@]4(C)[C@H]3[C@@H](O)C[C@@]21C [Loteprednol etabonate, chloromethyl 17α-ethoxycarbonyloxy-11β-hydroxyandrosta-1,4-dien-3-one-17β-carboxylate]
logP [1]: 3.03
Intrinsic activity in in vitro receptor binding studies (in words) ([3]; Druzgala et al. 1991, [3H]-triamcinolone acetonide tracer, 10^−5M cortienic acid as competitor): intrinsically active
rBA (relative receptor binding affinity) ([3]; relative to dexamethasone = 100, average of all values if multiple available): 150
Vasoconstriction activity (total score of 4 tests) ([5]; 0.1 mM, 2 hr after removal, 4 h application): 2
Vasoconstriction activity (total score of 4 tests) ([5]; 0.1 mM, 4 hr after removal): 3
Vasoconstriction activity (total score of 4 tests) ([5]; 0.1 mM, 6 hr after removal): 5
Vasoconstriction activity (total score of 4 tests) ([5]; 0.1 mM, 8 hr after removal): 5
Vasoconstriction activity (total score of 4 tests) ([5]; 0.1 mM, 10 hr after removal): 3
Vasoconstriction activity (total score of 4 tests) ([5]; 0.1 mM, 16 hr after removal): 1
Vasoconstriction activity (total score of 4 tests) ([5]; 0.1 mM, 18 hr after removal): 1
Vasoconstriction activity (total score of 4 tests) ([5]; 0.1 mM, 24 hr after removal): 1
Vasoconstriction activity (total score of 4 tests) ([5]; 1 mM, 2 hr after removal, 4 h application): 6
Vasoconstriction activity (total score of 4 tests) ([5]; 1 mM, 4 hr after removal): 7
Vasoconstriction activity (total score of 4 tests) ([5]; 1 mM, 6 hr after removal): 8
Vasoconstriction activity (total score of 4 tests) ([5]; 1 mM, 8 hr after removal): 8
Vasoconstriction activity (total score of 4 tests) ([5]; 1 mM, 10 hr after removal): 9
Vasoconstriction activity (total score of 4 tests) ([5]; 1 mM, 16 hr after removal): 6
Vasoconstriction activity (total score of 4 tests) ([5]; 1 mM, 18 hr after removal): 5
Vasoconstriction activity (total score of 4 tests) ([5]; 1 mM, 24 hr after removal): 2
Vasoconstriction activity alone (in words) ([5]; by itself, concentration range 0.1 to 1 mM, human skin): good vasoconstriction activity
Increase of vasoconstriction activity of LE by addition of the same amount of HC or PRN ([5]; co-administration of 0.1 mM HC or PRN): 60-80%
Increase of vasoconstriction activity of LE by addition of the same amount of HC or PRN ([5]; co-administration of 1 mM HC or PRN): 60-75%
Activity relative to hydrocortisone [6]: approximately 20 times
